Results taken from patent US9603899B2, “PDGF induced cell homing” (The Trustees of Columbia University in the City of New York, priority 2010, dated 2017).
“Also recorded” adds a separate entry of the source.

Tests used:
[1] = test system: alveolar stem/progenitor cells; assay: Transwell migration assay; type: cell-based, human; settings: for migration / recruitment of alveolar stem/progenitor cells: negative control serum-free medium, positive control DMEM with 15% FBS
Description: Transwell migration assay was performed to determine PDGF's ability to recruit alveolar stem/progenitor cells in a dose-response manner.

[2] = test system: alveolar stem/progenitor cells; settings: 15 μM; chemically defined medium, calcein AM label

| Compound | migration / recruitment of alveolar stem/progenitor cells ([1]; Transwell migration) | PDGF concentration at which highest cell migration was observed ([1]; tested at 10 ng/ml, 25 ng/ml and 50 ng/ml) [ng/mL] | chemoattractant efficacy compared among PDGF isoforms ([1]; Transwell migration, compared with other PDGF isoforms and positive control 15% FBS) | capillary tubular formation [2] |
| --- | --- | --- | --- | --- |
| PDGF-AA: PDGF isoform composed of two A chains | resulted in cell migration | – | – | – |
| platelet-derived growth factor [PDGF] | induces robust, dose-dependent migration; also recorded: cell migration was shown; also recorded: induced dose-dependent migration | 50 | – | – |
| PDGF-AB: PDGF isoform composed of one A and one B chain | resulted in cell migration | – | – | – |
| PDGF-BB: PDGF isoform composed of two B chains | induces robust, dose-dependent migration; also recorded: resulted in cell migration | – | most potent chemoattractant among all PDGF isoforms; also recorded: most robust efficacy, which was equal to positive control group with 15% fetal bovine serum; also recorded: higher rates of cell migration | – |
| C[S+]([O-])CCCCN=C=S (stereo not shown) [sulforaphane] | – | – | – | blocked |
